Bounds are passed on as bounds.

Holding throughout (type): in vivo
In experiment [1] the test system is Housefly [Musca domestica]. The experiment in a line: Housefly contact mortality in dishes (HF), 48 hours. Particulars: μg of test compound per 25 female flies. Summed up:
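Dry-film exposure of 25 female houseflies per cage, 48 h; LC50 as μg per 25 flies.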

In experiment [2] the test system is Tobacco Budworm [Heliothis virescens (Fabricius)] eggs. In words: Tobacco budworm eggs (TBW-E). Particulars: percent in solution; 2-day old eggs. Summed up:
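LC50 is given as percent compound in the dipping solution, fitted from dosage-mortality curves. Two-day-old eggs on paper towel were dipped in acetone solutions (top concentration 0.1%), kept at 78° F on rearing medium, and scored after control hatch and larval feeding.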

Experiment [3] relates to Aster Leafhopper [Macrosteles fascifrens (Stal)]. In words: Aster leafhopper on dipped oat seedlings (LH), 48 hours. The note with it: percent in solution, adults/nymphs. The method, boiled down: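 LC50 values, given as percent of test compound in the dip solution, were derived from dosage-mortality curves over concentrations from 0.05% downward. Mortality was counted 48 hours after ten leafhopper adults/nymphs were enclosed on treated seedlings. The seedlings were oats, about 10 cm tall, briefly dipped in 50-50 acetone-water.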

The test system of experiment [4] is Cabbage Looper [Trichoplusia ni (Hubner)]. In words: Cabbage looper leaf dip (CL), 3-5 days. The note with it: percent in solution, second-instar larvae. The method, boiled down:
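LC50, as percent test compound in solution, derived from dosage-mortality curves; concentrations started at 0.1% and went lower. Five second-instar larvae per dish fed on acetone-water-dipped, dried squash cotyledons in a humid chamber. Deaths recorded 3-5 days post-infestation.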

The subject of experiment [5] is Maize weevil [Sitophilus zeamais (Motschulsky)]. In words: Maize weevil on dipped corn seeds (MW), 48 hours. Particulars: percent in solution, adult weevils. Summed up: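 LC50, given as percent of compound in dipping solution, comes from dosage-mortality curves over concentrations descending from 0.01%. Four corn seeds soaked 2-3 s in 50:50 acetone:water solution were dried and held with 10 adult weevils, about 25° C, mortality read after 48 h.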

Experiment [6] deals with Black Bean Aphid [Aphis fabae (Scop.)]. The experiment in a line: Black bean aphid spray test on nasturtium (BBA), 48 hours. The note with it: percent of test compound in sprayed solution. The method, boiled down: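 LC50, given as percent test compound in the sprayed liquid, was calculated from dosage-mortality curves using concentrations from 0.05% downward. Sprays in 50:50 acetone-water went to runoff on ~5 cm nasturtiums carrying 25-50 aphids of mixed ages, one day after infestation. Deaths were counted 48 h later under greenhouse conditions.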

Consider `CC(C)C(=Nc1ccc(F)c(Cl)c1)OCc1cccc(Oc2ccc(Br)cc2)n1` [Compound 492], for which the “LC50 HF” value in experiment [1] was found to be 15 µg. Besides, the “LC50 TBW E (eggs)” value in experiment [2] came to 0.015%. The “LC50 LH” value in experiment [3] is recorded as over 0.05%. Further, in experiment [4], the “LC50 CL” value is 0.00028%. Besides, in experiment [5], the “LC50 MW” value is over 0.01%. For the same molecule, the “LC50 BBA” value in experiment [6] is over 0.05%.

Turning to `CC(C)C(=Nc1ccc(F)c(Cl)c1)OCc1cccc(Nc2ccc(F)cc2)c1` [Compound 512], in experiment [1], the “LC50 HF” value is 35 µg. Moreover, the “LC50 TBW E (eggs)” value in experiment [2] was over 0.1%. Further, the “LC50 LH” value in experiment [3] is recorded as over 0.05%. Besides, the “LC50 CL” value in experiment [4] is reported as 0.003%. Besides, in experiment [5], the “LC50 MW” value is reported as over 0.01%. The “LC50 BBA” value in experiment [6] is over 0.05%.

For the molecule `CC(C)C(=Nc1cccc(C(F)(F)F)c1)OCc1cccc(Nc2ccc(F)cc2)c1` [Compound 513], the “LC50 HF” value in experiment [1] is 81 µg. Besides, the “LC50 TBW E (eggs)” value in experiment [2] is given as over 0.1%. Further, in experiment [3], the “LC50 LH” value is recorded as over 0.05%. Moreover, the “LC50 CL” value in experiment [4] worked out at 0.007%. Further, the “LC50 MW” value in experiment [5] is over 0.01%. In addition, in experiment [6], the “LC50 BBA” value is given as over 0.05%.

Consider `CC(C)C(=Nc1ccc(Cl)c(Cl)c1)OCc1cccc(Nc2ccc(F)cc2)c1` [Compound 514], for which, in experiment [1], the “LC50 HF” value was over 100 µg. For the same molecule, the “LC50 TBW E (eggs)” value in experiment [2] is on record as over 0.1%. Moreover, the “LC50 LH” value in experiment [3] is over 0.05%. Moreover, the “LC50 CL” value in experiment [4] was 0.008%. The “LC50 MW” value in experiment [5] was over 0.01%. For the same molecule, the “LC50 BBA” value in experiment [6] turned out to be 0.003%.

Consider `CC(C)C(=Nc1ccc2c(c1)OCO2)OCc1cc(Oc2ccc(F)cc2)ccn1` [Compound 515], for which the “LC50 HF” value in experiment [1] worked out at 28 µg. Further, the “LC50 TBW E (eggs)” value in experiment [2] is recorded as over 0.1%. Further, the “LC50 LH” value in experiment [3] is reported as over 0.05%. Also, the “LC50 CL” value in experiment [4] was 0.0015%. The “LC50 MW” value in experiment [5] was over 0.01%. Further, the “LC50 BBA” value in experiment [6] is reported as over 0.05%.

Regarding `CC(C)C(=Nc1ccc(F)c(Cl)c1)OCc1cc(Oc2ccc(Cl)cc2)ccn1` [Compound 516], the “LC50 HF” value in experiment [1] was over 100 µg. Also, the “LC50 TBW E (eggs)” value in experiment [2] is given as over 0.1%. In addition, the “LC50 LH” value in experiment [3] is reported as over 0.05%. The “LC50 CL” value in experiment [4] was 0.008%. The “LC50 MW” value in experiment [5] is over 0.01%. For the same molecule, the “LC50 BBA” value in experiment [6] is over 0.05%.

As for `CC(C)C(=Nc1cccc(C(F)(F)F)c1)OCc1ccnc(Oc2ccc(Cl)cc2)c1` [Compound 517], the “LC50 HF” value in experiment [1] was determined as 80 µg. For the same molecule, the “LC50 TBW E (eggs)” value in experiment [2] was found to be 0.04%. Moreover, the “LC50 LH” value in experiment [3] is given as over 0.05%. In addition, the “LC50 CL” value in experiment [4] is reported as 0.0008%. Moreover, the “LC50 MW” value in experiment [5] is listed as over 0.01%. In experiment [6], the “LC50 BBA” value is recorded as over 0.05%.

Take `CC(C)C(=Nc1cccc(C(F)(F)F)c1)OCc1cccc(Oc2ccc(Cl)cn2)c1` [Compound 518]: in experiment [1], the “LC50 HF” value is over 100 µg. In addition, the “LC50 TBW E (eggs)” value in experiment [2] is given as over 0.1%. In addition, in experiment [3], the “LC50 LH” value is listed as over 0.05%. In addition, in experiment [4], the “LC50 CL” value was found to be 0.00075%. Besides, the “LC50 MW” value in experiment [5] was over 0.01%. The “LC50 BBA” value in experiment [6] is recorded as over 0.05%.

For `C#CC(OC(=Nc1cccc(C(F)(F)F)c1)C(C)C)c1cccc(Oc2ccccc2)c1` (stereo not drawn) [Compound 519], the “LC50 HF” value in experiment [1] turned out to be 60 µg. In experiment [2], the “LC50 TBW E (eggs)” value was over 0.1%. For the same molecule, the “LC50 LH” value in experiment [3] is listed as over 0.05%. Further, the “LC50 CL” value in experiment [4] stood at 0.0037%. Further, the “LC50 MW” value in experiment [5] is given as over 0.01%. The “LC50 BBA” value in experiment [6] was over 0.05%.

`CCC(=Nc1ccc(F)c(F)c1)OCc1coc(Cc2ccccc2)c1` [Compound 524]: in experiment [1], the “LC50 HF” value was found to be 5.2 µg. The “LC50 TBW E (eggs)” value in experiment [2] is over 0.1%. In experiment [3], the “LC50 LH” value is given as over 0.05%. For the same molecule, the “LC50 CL” value in experiment [4] is listed as over 0.1%. For the same molecule, the “LC50 MW” value in experiment [5] was over 0.01%. Further, the “LC50 BBA” value in experiment [6] is on record as over 0.05%.

In the case of `CC(C)(C)C(=Nc1ccc(F)c(F)c1)OCc1coc(Cc2ccccc2)c1` [Compound 525], the “LC50 HF” value in experiment [1] was over 100 µg. For the same molecule, in experiment [2], the “LC50 TBW E (eggs)” value is given as over 0.1%. Besides, the “LC50 LH” value in experiment [3] is recorded as over 0.05%. Also, the “LC50 CL” value in experiment [4] is under 0.1%. Besides, in experiment [5], the “LC50 MW” value was over 0.01%. Further, the “LC50 BBA” value in experiment [6] is reported as over 0.05%.

Consider `CC(=Nc1ccc(F)c(F)c1)OCc1coc(Cc2ccccc2)c1` [Compound 526], for which the “LC50 HF” value in experiment [1] worked out at 8.3 µg. In addition, the “LC50 TBW E (eggs)” value in experiment [2] was over 0.1%. The “LC50 LH” value in experiment [3] was over 0.05%. Besides, the “LC50 CL” value in experiment [4] is over 0.1%. In experiment [5], the “LC50 MW” value is given as over 0.01%. Moreover, the “LC50 BBA” value in experiment [6] is recorded as over 0.05%.

As to `CC(C)C(=Nc1ccc(F)c(Cl)c1)OCc1cccc(Oc2ccc(Cl)cn2)c1` [Compound 527], in experiment [1], the “LC50 HF” value came out at 47 µg. The “LC50 TBW E (eggs)” value in experiment [2] was 0.035%. For the same molecule, the “LC50 LH” value in experiment [3] was over 0.05%. Moreover, the “LC50 CL” value in experiment [4] worked out at 0.00065%. Besides, the “LC50 MW” value in experiment [5] is reported as over 0.01%. The “LC50 BBA” value in experiment [6] worked out at 0.03%.

For `CC(C)C(=Nc1ccc2c(c1)OCO2)OCc1cccc(Oc2ccc(Cl)cn2)c1` [Compound 532], the “LC50 HF” value in experiment [1] is over 100 µg. Also, the “LC50 TBW E (eggs)” value in experiment [2] is reported as over 0.1%. The “LC50 LH” value in experiment [3] is on record as over 0.05%. For the same molecule, in experiment [4], the “LC50 CL” value is given as under 0.1%. The “LC50 MW” value in experiment [5] is reported as over 0.01%. Moreover, the “LC50 BBA” value in experiment [6] was over 0.05%.

For `C#CC(OC(=Nc1ccc(F)c(Cl)c1)C(C)C)c1cccc(Oc2ccccc2)c1` (stereo not drawn) [Compound 533, N-(3-chloro-4-fluorophenyl)-O-[1-(3-phenoxyphenyl)-2-propyn-1-yl]isobutyrimidate], the “LC50 HF” value in experiment [1] was 60 µg. In addition, the “LC50 TBW E (eggs)” value in experiment [2] is over 0.1%. The “LC50 LH” value in experiment [3] is given as over 0.05%. In experiment [4], the “LC50 CL” value is over 0.1%. Besides, the “LC50 MW” value in experiment [5] was over 0.01%. In addition, in experiment [6], the “LC50 BBA” value was over 0.05%.

In the case of `CC(C)C(=Nc1ccc(F)c(Cl)c1)OCC#CCOc1ccccc1` [Compound 534], the “LC50 HF” value in experiment [1] is over 100 µg. For the same molecule, in experiment [2], the “LC50 TBW E (eggs)” value is over 0.1%. Further, the “LC50 LH” value in experiment [3] was over 0.05%. Moreover, in experiment [4], the “LC50 CL” value is listed as under 0.1%. The “LC50 MW” value in experiment [5] was over 0.01%. In addition, the “LC50 BBA” value in experiment [6] is over 0.05%.

Turning to `CC(C)C(=Nc1ccc(C(F)(F)F)cc1)OCc1cccc(Cc2ccccc2)c1` [Compound 535], the “LC50 HF” value in experiment [1] was 41 µg. Also, the “LC50 TBW E (eggs)” value in experiment [2] was over 0.1%. Also, the “LC50 LH” value in experiment [3] is listed as over 0.05%. The “LC50 CL” value in experiment [4] was over 0.1%. Also, the “LC50 MW” value in experiment [5] is listed as over 0.01%. Besides, the “LC50 BBA” value in experiment [6] is listed as over 0.05%.

Take `Cc1c(COC(=Nc2ccc(C(C)(C)C)cc2)C(C)C)cccc1-c1ccccc1` [Compound 536]: the “LC50 HF” value in experiment [1] is over 100 µg. Moreover, in experiment [2], the “LC50 TBW E (eggs)” value is over 0.1%. In addition, in experiment [3], the “LC50 LH” value is listed as over 0.05%. In addition, the “LC50 CL” value in experiment [4] is listed as under 0.1%. Further, the “LC50 MW” value in experiment [5] is over 0.01%. Moreover, in experiment [6], the “LC50 BBA” value is under 0.05%.

Regarding `CC(C)C(=Nc1ccc(F)c(Cl)c1)OCc1cccc(Cc2ccccc2)c1` [Compound 537], the “LC50 HF” value in experiment [1] is 20 µg. In experiment [2], the “LC50 TBW E (eggs)” value is given as over 0.1%. The “LC50 LH” value in experiment [3] is reported as over 0.05%. Moreover, in experiment [4], the “LC50 CL” value is over 0.1%. Besides, the “LC50 MW” value in experiment [5] is given as over 0.01%. Moreover, the “LC50 BBA” value in experiment [6] is reported as over 0.05%.

Source of the values: patent US5045566A, “Novel imidate insecticides” (ICI Americas Inc., priority 1989, dated 1991).
